According to PubChem BioAssay AID1996:
Converted amounts (≈) assume the structure as drawn.

Conditions: buffer; pH 7.4; 200.0 µM

| Compound | solubility kinetic [µg/mL] |
| --- | --- |
| COc1ccc(CN2CCN(Cc3ccc(C)cc3)C(CCO)C2)cc1OC (stereo not drawn) | 51.8 (≈ 135 µM) |
| O=CN1CCN(C(=S)NC(=O)c2ccc(Cl)cc2)CC1 | 44.3 (≈ 142 µM) |
| CN(Cc1c(F)cccc1Cl)C(=O)CNC(=O)c1cccs1 | > 51.1 |
| Cc1cccc2cc(C#N)c(NCc3ccccc3)nc12 | 11.4 (≈ 41.7 µM) |
| COc1ccccc1C(=O)NCCNC(=O)c1ccc(C)nc1 | 45.7 (≈ 146 µM) |
| Cc1ccc(NC(=O)N2CCN(c3ncccc3C(F)(F)F)CC2)cc1 | 1.5 (≈ 4.12 µM) |
| CCN(CC)CC#CCC(O)(c1ccccc1)c1ccccc1 | > 46.1 |
| CCCn1c(=O)c(C(=O)Nc2cccc(C)c2)c(O)c2ccccc21 | < 0.4 |
| COC(=O)/C(C#N)=C/c1ccc(C)o1 | 20.7 (≈ 108 µM) |
| CCCNc1nc2ccccc2c(=O)[nH]1 | > 30.5 |
| N/C(=N/OC(=O)c1ccccc1Cl)c1ncc([N+](=O)[O-])s1 | 1.3 (≈ 3.98 µM) |
| Cc1ccc(S(=O)(=O)N2CC(C)C(=O)CC2C)cc1 (stereo not drawn) | 38.6 (≈ 137 µM) |
| CCOc1ccc(OCCn2c(=S)[nH]c3c(N)ncnc32)cc1 | 20.1 (≈ 60.7 µM) |
| O=C1c2ccccc2NC(c2cccc(O)c2)N1Cc1ccco1 (stereo not drawn) | > 48.1 |
| CC(=O)c1ccc(S(=O)(=O)Nc2ccc(S(=O)(=O)N3CCCCC3)cc2)cc1 | > 63.4 |
| O=C(NCC1CCCO1)c1ccc(-c2cccc(C(F)(F)F)c2)o1 (stereo not drawn) | 38.4 (≈ 113 µM) |
| O=C(CCNC(=O)c1ccc(Br)cc1)Nc1ncccc1O | 52.3 (≈ 144 µM) |
| O=C(Nc1nccs1)c1ccc(Br)s1 | 5.6 (≈ 19.4 µM) |
| COC(=O)c1ccc(COC(=O)c2cccn2C)o1 | 27.1 (≈ 103 µM) |
| Cc1ccc(C(C[N+](=O)[O-])c2c(N)n(C)c(=O)n(C)c2=O)cc1 (stereo not drawn) | > 47.7 |
| Cc1ccc(S(=O)(=O)N2CCCCC2)cc1NC(=O)c1ccccc1Cl | 23.2 (≈ 59 µM) |
| O=C(Nc1cccc(C(=O)Nc2ccc(F)cc2F)c1)c1ccccc1 | 0.4 (≈ 1.14 µM) |
| COc1ccc(CN(C)CC(=O)Nc2cccc(S(=O)(=O)N3CCCC3)c2)cc1F | 44 (≈ 101 µM) |
| COc1ccc(-c2nc3ncccc3o2)cc1NC(=O)c1cccs1 | 0.3 (≈ 0.854 µM) |

| Compound | solubility kinetic [µg/mL] |
| --- | --- |
| O=C1OCCN1S(=O)(=O)Nc1ccccc1 | > 36.3 |
| CSc1ccccc1NS(=O)(=O)c1cccc2nonc12 | > 48.2 |
| COc1ccc(OC)c(NC(=S)N2CCCC2)c1 | > 40 |
| CC1CN(C(=O)COc2ccc3ccccc3c2)CC(C)O1 (stereo not drawn) | > 44.9 |
| Cc1csc(NC(=O)c2ccc(S(=O)(=O)N3CCN(C)CC3)cc2)n1 | 54.5 (≈ 143 µM) |
| N#CC1=C(N)Oc2cc(N)ccc2C1c1ccccc1Cl (stereo not drawn) | 32.9 (≈ 110 µM) |
| CC12CCC(=O)N1C(C(=O)Nc1ccc(F)cc1)CS2 (stereo not drawn) | > 44.2 |
| O=[N+]([O-])c1ccc(SCCc2ccncc2)cc1 | 31.5 (≈ 121 µM) |
| Cc1csc(NC(=O)CCNC(=O)c2ccccc2Cl)n1 | 43.9 (≈ 136 µM) |
| O=C(Nc1ccc(Cl)cn1)c1ccc(Oc2ccccc2)cc1 | < 0.3 |
| CC(=O)c1ccc(N2CCN(CC(O)c3ccccc3)CC2)cc1 (stereo not drawn) | > 48.7 |
| C=CCn1cnnc1SCC(=O)N(C1CCCCC1)C1CCS(=O)(=O)C1 (stereo not drawn) | > 59.8 |
| CCOC(=O)C1(Cc2ccccc2C)CCCN(C(=O)COC)C1 (stereo not drawn) | 35.6 (≈ 107 µM) |
| Cc1ccc(-c2c(=O)n(O)c3ccccc3[n+]2[O-])cc1 | 40.1 (≈ 149 µM) |
| CC(=O)Nc1c(-c2ccc3ccccc3c2)nc2ccccn12 | 10.7 (≈ 35.5 µM) |
| O=C(O)CNC(=O)C12CC3CC(CC(Cl)(C3)C1)C2 | > 40.8 |
| Nc1cc(=O)[nH]c(SCC(=O)Nc2cc(Cl)ccc2Cl)n1 | 3.5 (≈ 10.1 µM) |
| Cc1ccc(C)c(C(C)NC(=O)c2ccncc2)c1 (stereo not drawn) | 36 (≈ 142 µM) |
| O=C(O)c1cc(Oc2ccc(C(F)(F)F)cc2Cl)ccc1[N+](=O)[O-] | > 54.2 |
| COc1cc(OC)cc(C(=O)OCC(=O)Nc2ccc3[nH]c(=O)[nH]c3c2)c1 | 4.4 (≈ 11.8 µM) |
| Cc1onc(-c2ccccc2)c1CNS(=O)(=O)c1ccc(F)cc1F | 51.6 (≈ 142 µM) |
| COc1cc(CC(=O)N2CCN(C(=O)C3CCCO3)CC2)cc(OC)c1OC (stereo not drawn) | > 58.9 |
| O=C(/C=C/c1ccccc1)OCC(=O)c1c[nH]c2ccccc12 | 3.9 (≈ 12.8 µM) |
| OCCN(Cc1ccccc1)Cc1nc(CC2CC2)no1 | > 43.1 |

| Compound | solubility kinetic [µg/mL] |
| --- | --- |
| CC(=O)Nc1ccc(NC(=O)c2c(-c3ccccc3)noc2C)cn1 | 11.1 (≈ 33 µM) |
| O=C(Cn1cnc2cc([N+](=O)[O-])ccc2c1=O)N1CCN(S(=O)(=O)c2ccccc2)CC1 | 11 (≈ 24 µM) |
| Cc1ccc2[nH]cc(CCNC(=O)/C=C/c3ccco3)c2c1 | 36.9 (≈ 125 µM) |
| CCOc1ccccc1NC(=S)NCCCn1ccnc1 | 42.1 (≈ 138 µM) |
| Cc1c(NS(=O)(=O)c2cccs2)cccc1-c1nc2cccnc2s1 | 2.4 (≈ 6.19 µM) |
| Cc1cccc(NC(=S)N2CCCCCC2)c1C | > 39.4 |
| O=C(O)c1ccccc1NC(=O)N1CCOCC1 | > 37.5 |
| COCCN1Cc2cccc(C(=O)NCCc3ccccc3)c2C1=O | 41.5 (≈ 123 µM) |
| CCNC(=O)c1ccccc1SCC(=O)Nc1ccc(F)cc1 | > 49.9 |
| CCOC(=O)C(=CNc1ccc(C#N)cc1)C(=O)OCC | > 43.2 |
| CSc1nc2c(C)c(C)c(C)c(C)c2[nH]1 | 3.2 (≈ 14.5 µM) |
| CN(C(=O)c1cccc(NC(=O)Cc2ccccc2)c1)c1ccccc1 | > 51.7 |
| Cc1c(C(=O)Nc2ccccc2)c2ccc(C(F)(F)F)cc2n1O | 1 (≈ 2.99 µM) |
| Cn1c(-c2ccccc2)c(C=O)c2ccccc21 | 19.5 (≈ 82.9 µM) |
| CC(=O)c1cc(F)ccc1OCC(=O)N1CCCc2ccccc21 | 44.1 (≈ 135 µM) |
| O=C(Nc1nccs1)c1ccc[nH]c1=O | > 33.2 |
| CCN(C(=O)c1cc(Cl)ccc1Cl)C1CCS(=O)(=O)C1 (stereo not drawn) | > 50.4 |
| Cc1ccc(N2CC(C)Cn3c2nc2c3c(=O)[nH]c(=O)n2C)cc1 (stereo not drawn) | 8.8 (≈ 27 µM) |
| O=C(NCc1ccc2c(c1)OCO2)C(=O)Nc1ccccc1 | 0.5 (≈ 1.68 µM) |
| CN1CCC(N(C)C(=O)COc2ccccc2Cl)CC1 | > 44.5 |
| C[N+](C)(C)CCCCCC[N+](C)(C)C.[Br-] | > 54.3 |
| NS(=O)(=O)c1cc(C(=O)OCC(=O)Nc2ccc3c(c2)OCO3)ccc1Cl | 16.9 (≈ 40.9 µM) |
| CCC(C)NC(=O)Cn1nc(C(F)(F)F)c2c1CCC2 (stereo not drawn) | > 43.4 |
| CCOc1ccc(CCNC(=O)COC(=O)c2ccncc2)cc1OCC | > 55.9 |

| Compound | solubility kinetic [µg/mL] |
| --- | --- |
| COc1ccc(NC(=S)NCc2ccccc2)c(OC)c1 | 38.8 (≈ 128 µM) |
| COc1ccc(NCC(=O)Nc2cccc(C(F)(F)F)c2)cc1S(=O)(=O)N1CCOCC1 | 3.4 (≈ 7.18 µM) |
| Cc1csc(SCC(=O)Nc2ccc(C)c(F)c2)n1 | > 44.5 |
| Cc1cc2nc(C)c3c(n2n1)CCC3 | > 28.1 |
| O=C(CCS(=O)(=O)c1ccccc1)N1CCCc2ccccc21 | 49.2 (≈ 149 µM) |
| O=C(NCCCN1CCOCC1)C(=O)NCCc1ccccc1 | > 47.9 |
| Cc1cccc(NC(=O)C2CCCN(c3cnccn3)C2)c1 (stereo not drawn) | 27.2 (≈ 91.8 µM) |
| CCCCN(CCCC)c1nc(-c2ccncc2)nc2ccccc12 | < 0.2 |
| NC(=O)c1c(NC(=O)c2ccc(F)cc2)sc2c1CCC2 | 0.7 (≈ 2.3 µM) |
| CC(C)NC(=O)/C(C#N)=C\c1ccc(N(C)C)o1 | > 37.1 |
| COc1nc(N(C)C)nc(N(C#N)CCOC(C)=O)n1 | > 42 |
| Nc1ccc2nc(CCCCCCc3nc4ccc(N)cc4[nH]3)[nH]c2c1 | > 52.3 |
| Cc1ccc(SCC(=O)NC(C)c2ccccc2)cc1 (stereo not drawn) | > 42.8 |
| Cc1ccc(NC(=O)CN2CCc3ccccc3C2)cc1C | 18.8 (≈ 63.9 µM) |
| O=C1C=C(Nc2ccc(F)cc2)c2ccccc2C1=O | < 0.6 |
| Fc1ccc(CCNC(=S)Nc2ccc(F)c(Cl)c2)cc1 | 23.9 (≈ 73.1 µM) |
| CCC(C)NC(=O)C1CCN(S(=O)(=O)N2CCOCC2)CC1 (stereo not drawn) | > 50 |
| COc1ccc(Cl)cc1C(=O)N1CCN(Cc2ccc3c(c2)OCO3)CC1 | 47.4 (≈ 122 µM) |
| O=C(NCCCn1ccnc1)c1ccc(OCC(F)(F)F)cc1 | 43.4 (≈ 133 µM) |
| c1ccc(CNc2cncnc2)cc1 | 26.4 (≈ 143 µM) |
| CC(C)(C)c1ccccc1NC(=O)c1cc(-c2ccncc2)nc2ccccc12 | 10.8 (≈ 28.3 µM) |
| O=C1NCCN1CCNS(=O)(=O)c1ccc(F)c(Cl)c1 | > 48.3 |
| CC(=NCc1ccco1)c1c(O)n(-c2ccc(C)cc2)c(=O)[nH]c1=O | 12.5 (≈ 36.8 µM) |
| O=C(COC(=O)C12CC3CC(CC(C3)C1)C2)NCc1ccccc1 | 10.2 (≈ 31.2 µM) |

| Compound | solubility kinetic [µg/mL] |
| --- | --- |
| Cc1nn(C)cc1S(=O)(=O)Nc1cccc(Cl)c1 | > 42.9 |
| CCCn1cnc2cc(NC(=O)c3ccco3)ccc21 | > 40.4 |
| Cc1cc2cc(CNC(=O)Cc3ccc([N+](=O)[O-])cc3)ccc2[nH]1 | 6.9 (≈ 21.3 µM) |
| Cc1ccc(C(=O)N=c2sccn2C)cc1C | 10 (≈ 40.6 µM) |
| O=C(OCc1c(F)cccc1Cl)c1cnc2ccccc2n1 | 1.8 (≈ 5.68 µM) |
| O=C(NC1CCSc2ccccc21)c1cccc([N+](=O)[O-])c1 (stereo not drawn) | 2.4 (≈ 7.63 µM) |
| Cc1ccc2nc(SC(C)C(=O)N3CCCCC3)[nH]c2c1 (stereo not drawn) | > 45.5 |
| CN(C)CC(C)(C)CNS(=O)(=O)c1ccc(Cl)cc1.Cl | 49.4 |
| COc1cc2c(C(=O)O)c(C)n(-c3ccccc3)c2c2ccccc12 | 1.3 (≈ 3.92 µM) |
| CC(C)c1ccc(NC(=S)N2CCN(C)CC2)cc1 | > 41.6 |
| O=C(OCC(=O)N1CCOCC1)c1ccccc1O | 29.8 (≈ 112 µM) |
| COC(=O)C/C(N)=C(\C#N)C(=O)OC | > 29.7 |
| COc1cccc(C(=O)N2CCC(C(=O)NCc3ccco3)CC2)c1 | 50.6 (≈ 148 µM) |
| C=CCn1c(O)c(CN2CCCCC2)c(C)c(C#N)c1=O | > 43.1 |
| O=[N+]([O-])c1ccc(NS(=O)(=O)N2CCOCC2)cc1 | > 43.1 |
| S=C(NCc1ccco1)N1CCN(c2ccccc2Cl)CC1 | 19.5 (≈ 58.1 µM) |
| COc1cccc(CC(=O)Nc2nc(-c3ccc(F)c(F)c3)cs2)c1 | 0.5 (≈ 1.39 µM) |
| Cc1cccc(NC(=O)c2ccc(N3CCOCC3)c([N+](=O)[O-])c2)n1 | 38.1 (≈ 111 µM) |
| COc1cc(/C=C(\CCC(=O)O)c2nc3ccccc3s2)ccc1OCC(=O)Nc1c(Cl)cccc1Cl | 24.2 (≈ 43.4 µM) |
| COc1ccc(CNC(=O)C(=O)NC2CC(C)(C)NC(C)(C)C2)cc1 | > 52.1 |
| C=CCc1c(C)c(C#N)c2nc3ccccc3n2c1N1CCCCC1 | < 0.2 |
| CC(=O)N1CCN(C(=O)c2cc3c(s2)CCCC3)CC1 | > 43.9 |
